Patent US20110166176A1, “COMPOUNDS AND COMPOSITIONS AS MODULATORS OF GPR119 ACTIVITY” (IRM LLC, priority 2008, published 2011)

Biological target: T1, human GPR119 (Homo sapiens, UniProt Q8TDV5)
T1 construct: expressed in transfected cells
T1 sequence (Q8TDV5 1-335): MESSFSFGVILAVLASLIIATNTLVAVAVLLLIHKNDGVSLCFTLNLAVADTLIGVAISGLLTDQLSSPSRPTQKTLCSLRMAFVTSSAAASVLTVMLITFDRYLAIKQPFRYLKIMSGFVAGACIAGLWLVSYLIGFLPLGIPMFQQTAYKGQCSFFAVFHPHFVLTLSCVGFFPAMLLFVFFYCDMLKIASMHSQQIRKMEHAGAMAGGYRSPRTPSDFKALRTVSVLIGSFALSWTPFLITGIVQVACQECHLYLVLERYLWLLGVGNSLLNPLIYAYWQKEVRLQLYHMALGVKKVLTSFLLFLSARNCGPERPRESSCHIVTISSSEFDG
Experiment: Cyclic AMP assay (HTRF) in stable Flp-In-CHO-hGPR119 cell line
Format: cell-based
Settings: Flp-In-CHO-hGPR119 cells, intracellular cAMP, 30 minutes at 37° C., 1 mM IBMX, read-out: CHO-GPR119-HTRF (3158) EC50
Method: Flp-In-CHO cells (Invitrogen, Cat. # R758-07) are maintained in Ham's F12 medium supplemented with 10% fetal bovine serum, 1% antibiotic mixture and 2 mM L-glutamine. The cells are transfected with a DNA mixture containing human GPR119 in pcDNA5/FRT vector and the pOG44 vector (1:9) using Fugene6 (Roche), according to the manufacturer's instruction. After 48 hours, the medium is changed to medium supplemented with 400 μg/ml hygromycin B to initiate the selection of stably transfected cells.
To test the activity of compounds of the invention, Flp-In-CHO-hGPR119 cells are harvested and resuspended in DMEM plus 3% lipid-depleted fetal bovine serum. Forth μl of cells are plated in 384 well plates at a density of 15,000 cells/well. IBMX (3-isobutyl-1-methyl-xanthine) is added to the cells to a final concentration of 1 mM, followed by the addition of 500 nl of the compound to be tested. The cells are incubated at 37° C. for 30 minutes. Equal volume (20 μl) of the HTRF reagents, anti-cAMP-Cryptate and cAMP-XL665, are added to the cells. The plates are incubated at room temperature for 1 hour and read on a HTRF reader according to the manufacturer's instruction.
Compounds of Formula I, in free form or in pharmaceutically acceptable salt form, produced a concentration-dependent increase in intracellular cAMP level. […] Specific EC50 data is presented for some of the compounds of the invention in the table, infra.

Structure (SMILES)	EC50
CC(C)OC(=O)N1CCc2cc(O[C@H]3CCN(c4ccc(S(C)(=O)=O)cc4)C3)ccc2C1 [Example 1, (S)-isopropyl 6-(1-(4-(methylsulfonyl)phenyl)pyrrolidin-3-yloxy)-3,4-dihydroisoquinoline-2(1H)-carboxylate]	85 nM
CC(C)OC(=O)N1CCc2cc(O[C@H]3CCN(c4ccc(S(C)(=O)=O)cc4F)C3)ccc2C1 [Example 2, (S)-isopropyl 6-(1-(2-fluoro-4-(methylsulfonyl)phenyl)pyrrolidin-3-yloxy)-3,4-dihydroisoquinoline-2(1H)-carboxylate]	42 nM
CC(C)OC(=O)N1CCc2cc(CO[C@H]3CCN(c4ccc(S(C)(=O)=O)cc4)C3)ccc2C1 [Example 3, (S)-isopropyl 6-((1-(4-(methylsulfonyl)phenyl)pyrrolidin-3-yloxy)methyl)-3,4-dihydroisoquinoline-2(1H)-carboxylate]	202 nM
CC(C)OC(=O)N1CCc2ccc(CO[C@H]3CCN(c4ccc(S(C)(=O)=O)cc4)C3)cc2C1 [Example 4, (S)-isopropyl 7-((1-(4-(methylsulfonyl)phenyl)pyrrolidin-3-yloxy)methyl)-3,4-dihydroisoquinoline-2(1H)-carboxylate]	424 nM
CNCc1ccc(O[C@H]2CCN(c3ccc(S(C)(=O)=O)cc3)C2)cc1 [Example 5, (S)—N-methyl-1-(4-(1-(4-(methylsulfonyl)phenyl)pyrrolidin-3-yloxy)phenyl)methanamine]	353 nM
CNCc1cccc(O[C@H]2CCN(c3ccc(S(C)(=O)=O)cc3)C2)c1 [Example 6, (S)—N-methyl-1-(3-(1-(4-(methylsulfonyl)phenyl)pyrrolidin-3-yloxy)phenyl)methanamine]	319 nM
CCN(Cc1ccccc1)Cc1cccc(O[C@H]2CCN(c3ccc(S(C)(=O)=O)cc3)C2)c1 [Example 7]	423 nM
CC(C)N(Cc1ccccc1)Cc1cccc(O[C@H]2CCN(c3ccc(S(C)(=O)=O)cc3)C2)c1 [Example 8]	586 nM
CS(=O)(=O)c1ccc(N2CC[C@H](Oc3cccc(CNCc4ccccc4)c3)C2)c(F)c1 [Example 9]	2620 nM
CN(Cc1ccccc1)Cc1cccc(O[C@H]2CCN(c3ccc(S(C)(=O)=O)cc3F)C2)c1 [Example 10]	259 nM
CCN(Cc1ccccc1)Cc1cccc(O[C@H]2CCN(c3ccc(S(C)(=O)=O)cc3F)C2)c1 [Example 11]	356 nM
CC(C)N(Cc1ccccc1)Cc1cccc(O[C@H]2CCN(c3ccc(S(C)(=O)=O)cc3F)C2)c1 [Example 12]	33 nM
CCCN(Cc1ccccc1)Cc1cccc(O[C@H]2CCN(c3ccc(S(C)(=O)=O)cc3F)C2)c1 [Example 13]	730 nM
CCN(Cc1cccc(O[C@H]2CCN(c3ccc(S(C)(=O)=O)cc3)C2)c1)C(=O)OC(C)C [Example 14, (S)-Isopropyl ethyl(3-(1-(4-(methylsulfonyl)phenyl)pyrrolidin-3-yloxy)benzyl)carbamate]	82 nM
CCCN(Cc1cccc(O[C@H]2CCN(c3ccc(S(C)(=O)=O)cc3)C2)c1)C(=O)OC(C)C [Example 15]	397 nM
CC(C)OC(=O)N(Cc1cccc(O[C@H]2CCN(c3ccc(S(C)(=O)=O)cc3)C2)c1)C(C)C [Example 16]	199 nM
CC(C)OC(=O)N(C)Cc1cccc(O[C@H]2CCN(c3ccc(S(C)(=O)=O)cc3)C2)c1 [Example 17]	263 nM
CC(C)OC(=O)OCc1cccc(O[C@H]2CCN(c3ccc(S(C)(=O)=O)cc3F)C2)c1 [Example 18, (S)-3-(1-(2-fluoro-4-(methylsulfonyl)phenyl)pyrrolidin-3-yloxy)benzyl isopropyl carbonate]	794 nM
CC(C)OC(=O)OCc1ccc(O[C@@H]2CCN(c3ccc(S(C)(=O)=O)cc3F)C2)cc1 [Example 19]	1020 nM
CC(C)OC(=O)OCCc1cccc(O[C@@H]2CCN(c3ccc(S(C)(=O)=O)cc3F)C2)c1 [Example 20]	515 nM
